From patent US20090176817A1, “Method of Treatment of Diarrhea-Predominant Irritable Bowel Syndrome in a Subject” (priority 2005, published 2009)

Assays:
clinical [1] = settings: male, human, in vivo; for CL renal: CLr; for half-life: T½
Experimental: Subjects were randomized to receive cilansetron 8 mg IV solution (30-minute infusion), cilansetron 8 mg oral solution, and a cilansetron 8 mg capsule during the three treatment periods, with a 23-day washout between periods. All doses were administered under fasted conditions. […] Table 2.7.1.2.3 presents descriptive statistics for the pharmacokinetic parameters of cilansetron capsule and oral solution, and the results of statistical comparisons between treatments (capsule versus solution). […] Median Tmax was also similar between the capsule and oral solution.
Subjects were randomized to receive cilansetron 8 mg IV solution (30-minute infusion), cilansetron 8 mg oral solution, and a cilansetron 8 mg capsule during the three treatment periods, with a 23-day washout between periods. All doses were administered under fasted conditions. […] Its low bioavailability, complete absorption from the GI tract, and its 4.5- to 5-fold higher apparent oral clearance in comparison to systemic clearance indicate that cilansetron is a high extraction drug and undergoes significant first pass metabolism on oral administration. Intersubject % CVs were higher for oral (47-73%) than for IV administration (19-20%), reflecting increased variability due to oral absorption. Intrasubject % CVs ranged from 37-47% following oral and IV administration.
Cilansetron concentrations in this study were also modeled using a standard 2-compartment model for the IV data and a 1-compartment model for the oral data (using TOPFIT 2.0). The results from modeling are compared to the results obtained from non-compartmental analysis in Table 2.7.2.3.10 below, for the oral and IV solution. The results obtained by the two methods are very similar.

clinical [2] = assay type: in vitro ADME; settings: male, human, plasma; 8 mg oral/IV, 30, 45, 120 minutes; read-out: Fraction bound
Experimental: Plasma protein binding was also measured in blood samples collected at 30, 45, and 120 minutes after dosing in a single-dose, crossover study in which cilansetron 8 mg was administered orally (solution and capsule) and intravenously to 18 male subjects. In samples where total and/or free concentrations were measurable, fraction bound was about 96-98%.

healthy subjects = assay: Study S.241.2.106: colonic motility index; assay type: in vivo, human; settings: for colonic motility index, Comparison to Placebo: Ratio: ANOVA; for colonic motility index: arith. mean
Experimental: The effect of cilansetron on colonic motility was evaluated in a randomized, double-blind, placebo-controlled, 3-way crossover study in 12 healthy male and female subjects (ITT population), aged 24-34 years. Subjects received cilansetron 4 mg, cilansetron 8 mg, or placebo orally TID for 7 days during each of the treatment periods, with a 7-day washout between periods. Colonic motility assessments were done on the last day of each treatment period, around the time of the last dose. Subjects were fasted for 12 hours prior to start of colonic assessments. Colonic motor activity was recorded from 30 minutes prior to dosing until 240 minutes postdose. A high-calorie meal was administered at 1 hour postdose and 1 mg neostigmine was administered intramuscularly at 2.5 hours postdose. The main objective of the assessments was to establish whether cilansetron was able to reduce colonic motor activity after meal ingestion and after neostigmine injection. The main parameter of interest was the motility index, which was measured in intervals of ten minutes for a total period of 150 minutes postprandially. The time intervals of major interest were the 30-minute interval after start of meal ingestion (91-120 minutes) and the 30-minute interval after neostigmine injection (181-210 minutes). An ANOVA was used to compare the motility indices between treatments.

[3] = After Meal Ingestion, 4 mg TID oral 7 days
[4] = After Meal Ingestion, 8 mg TID oral 7 days
[5] = After Neostigmine, 4 mg TID oral 7 days
[6] = After Neostigmine, 8 mg TID oral 7 days

Question: Which “AUC(0-inf) ratio Oral Capsule/IV Soln” value (clinical [1]) does the source give for `Cc1nccn1C[C@H]1CCc2c(c3cccc4c3n2CCC4)C1=O` [Cilansetron, (R)-(−)-4,5,6,8,9,10-hexahydro-10-[(2-methyl-1H-imidazol-1-yl)methyl]-11H-pyrido-[3,2,1-jk]-carbazol-11-one] here?
Answer: Its value is 25 (19, 32) %.

Question: And the “AUC(0-inf) ratio Oral Soln/IV Soln” value (clinical [1])?
Answer: Its value is 26 (20, 34) %.

Question: What about the “AUC(0-last) ratio Oral Capsule/IV Soln” value (clinical [1]) of the same compound?
Answer: Its value is 23 (18, 31) %.

Question: And the “AUC(0-last) ratio Oral Soln/IV Soln” value (clinical [1])?
Answer: The value was 24 (18, 32) %.

Question: And the “Intrasubject % CV” value (clinical [1])?
Answer: The value was 37-47%.

Question: What about the “% Dose (urine)” value (clinical [1]; iv) of the same compound?
Answer: The value was 0.41 (96) %.

Question: What about the “AUC(0-inf)” value (clinical [1]; iv) of the same compound?
Answer: Its value is 222 (42) ng · h/mL.

Question: And the CL (clinical [1]; iv)?
Answer: The CL was 619 (108) mL/min.

Question: And the “Intersubject % CV” value (clinical [1]; iv)?
Answer: Its value is 19-20%.

Question: And the T½ (clinical [1]; iv)?
Answer: Its T½ is 1.33 (0.32) h.

Question: And the Vss (clinical [1]; iv)?
Answer: Its Vss is 58 (11) L.

Question: And the AUC(0-inf) (clinical [1]; iv, 8 mg, AUC(0-inf))?
Answer: The AUC(0-inf) was 234 ng·h/mL.

Question: And the AUC(0-t) (clinical [1]; iv, 8 mg, AUC(0-last))?
Answer: Its AUC(0-t) is 228 ng·h/mL.

Question: What about the clearance (clinical [1]; iv, 8 mg, CL) of the same compound?
Answer: Its clearance is 590 mL/min.

Question: And the CL renal (clinical [1]; iv, 8 mg)?
Answer: Its CL renal is 2.3 mL/min.

Question: And the clearance (clinical [1]; iv, 8 mg, Systemic plasma clearance)?
Answer: The clearance was roughly 600 mL/min.

Question: And the half-life (clinical [1]; iv, 8 mg)?
Answer: The half-life was 1.33 h.

Question: What about the Vd (clinical [1]; iv, 8 mg, Vss) of the same compound?
Answer: The Vd was 55.6 L.

Question: What about the Vd (clinical [1]; iv, 8 mg, Vz) of the same compound?
Answer: Its Vd is 66.7 L.

Question: And the AUC(0-inf) (clinical [1]; iv, AUC (0-inf))?
Answer: The AUC(0-inf) was 234 ng·h/mL.

Question: What about the clearance (clinical [1]; iv, CL) of the same compound?
Answer: Its clearance is 590 mL/min.

Question: What about the Cmax (clinical [1]; iv, Cmax) of the same compound?
Answer: Its Cmax is 149 ng/mL.

Question: And the Vd (clinical [1]; iv, Steady-state volume of distribution (Vss))?
Answer: Its Vd is roughly 56 L.

Question: What about the Tmax (clinical [1]; iv, Tmax) of the same compound?
Answer: The Tmax was 0.55 h.

Question: What about the half-life (clinical [1]; iv) of the same compound?
Answer: The half-life was 1.33 h.

Question: What about the Vd (clinical [1]; iv, Vss) of the same compound?
Answer: Its Vd is 56 L.

Question: What about the “AUC (0-inf) ratio capsule:oral solution” value (clinical [1]; po) of the same compound?
Answer: Its value is 93%.

Question: And the “AUC (0-last) ratio capsule:oral solution” value (clinical [1]; po)?
Answer: The value was 96%.

Question: What about the “AUC(0-inf)” value (clinical [1]; po) of the same compound?
Answer: Its value is 69 (49) ng · h/mL.

Question: What about the “Apparent oral clearance higher than systemic clearance” value (clinical [1]; po) of the same compound?
Answer: Its value is 4.5-5 fold.

Question: What about the Cmax (clinical [1]; po) of the same compound?
Answer: The Cmax was 29 (18) ng/mL.

Question: What about the “Cmax ratio capsule:oral solution” value (clinical [1]; po) of the same compound?
Answer: The value was 88%.

Question: And the “Intersubject % CV” value (clinical [1]; po)?
Answer: Its value is 47-73%.

Question: What about the Tmax (clinical [1]; po) of the same compound?
Answer: The Tmax was 0.76 (0.40) h.

Question: What about the T½ (clinical [1]; po) of the same compound?
Answer: Its T½ is 1.14 (0.27) h.

Question: And the bioavailability (clinical [1]; po)?
Answer: The bioavailability was 25%.

Question: What about the “AUC(0-inf)” value (clinical [1]; po, 8 mg) of the same compound?
Answer: Its value is 73.8 (69) ng · h/mL.

Question: And the “AUC(0-last)” value (clinical [1]; po, 8 mg)?
Answer: The value was 69.3 (73) ng · h/mL.

Question: And the CLr (clinical [1]; po, 8 mg)?
Answer: Its CLr is 2.37 (95) mL/min.

Question: And the Cmax (clinical [1]; po, 8 mg)?
Answer: Its Cmax is 39.2 (67) ng/mL.

Question: What about the Tmax (clinical [1]; po, 8 mg) of the same compound?
Answer: Its Tmax is 0.83 (0.33, 1.25) h.

Question: What about the T½ (clinical [1]; po, 8 mg) of the same compound?
Answer: The T½ was 1.47 (21) h.

Question: What about the Vz/F (clinical [1]; po, 8 mg) of the same compound?
Answer: Its Vz/F is 308 (79) L.

Question: What about the AUC(0-inf) (clinical [1]; po, 8 mg, AUC (0-inf)) of the same compound?
Answer: The AUC(0-inf) was 66 ng·h/mL.

Question: And the AUC(0-t) (clinical [1]; po, 8 mg, AUC (0-last))?
Answer: The AUC(0-t) was 62.1 ng·h/mL.

Question: What about the CL renal (clinical [1]; po, 8 mg) of the same compound?
Answer: Its CL renal is 2.92 mL/min.

Question: And the Cmax (clinical [1]; po, 8 mg, Cmax)?
Answer: Its Cmax is 31.4 ng/mL.

Question: What about the Tmax (clinical [1]; po, 8 mg, Tmax) of the same compound?
Answer: The Tmax was 1 h.

Question: What about the half-life (clinical [1]; po, 8 mg) of the same compound?
Answer: Its half-life is 1.28 h.

Question: What about the Vd/F (clinical [1]; po, 8 mg, Vz/F) of the same compound?
Answer: The Vd/F was 342 L.

Question: What about the AUC(0-inf) (clinical [1]; po, AUC (0-inf)) of the same compound?
Answer: Its AUC(0-inf) is 74 ng·h/mL.

Question: What about the Cmax (clinical [1]; po, Cmax) of the same compound?
Answer: The Cmax was 39 ng/mL.

Question: And the Tmax (clinical [1]; po, Tmax)?
Answer: The Tmax was 0.76 h.

Question: And the half-life (clinical [1]; po)?
Answer: Its half-life is 1.47 h.

Question: And the fraction unbound (clinical [2])?
Answer: The fraction unbound was 0.02 to 0.04.

Question: What about the “colonic motility index, Comparison to Placebo: Ratio” value (shortened to “colonic motility index … Ratio”) (healthy subjects; [3]) of the same compound?
Answer: The value was 101%.

Question: What about the colonic motility index (healthy subjects; [3]) of the same compound?
Answer: Its colonic motility index is 20358.

Question: What about the “colonic motility index … Ratio” value (healthy subjects; [4]) of the same compound?
Answer: Its value is 106%.

Question: What about the colonic motility index (healthy subjects; [4]) of the same compound?
Answer: Its colonic motility index is 23478.

Question: What about the “colonic motility index … Ratio” value (healthy subjects; [5]) of the same compound?
Answer: The value was 192%.

Question: What about the colonic motility index (healthy subjects; [5]) of the same compound?
Answer: Its colonic motility index is 50580.

Question: And the “colonic motility index … Ratio” value (healthy subjects; [6])?
Answer: Its value is 162%.

Question: What about the colonic motility index (healthy subjects; [6]) of the same compound?
Answer: The colonic motility index was 48691.
